Results reported in ChEMBL document CHEMBL5465560, “Selectivity Literature for EUbOPEN Chemogenomic Library” (2024).

Legend:
[1] = target: Tyrosine-protein kinase Srms (Homo sapiens) (UniProt Q9H3Y6); assay: Selectivity interaction (KinomeScan (DiscoverX)) EUB0000595a SRMS; conditions: at 10 µM
[2] = target: T1, Serine/threonine-protein kinase TAO3 (Homo sapiens) (UniProt Q9H2K8); assay: Selectivity interaction (KinomeScan (DiscoverX)) EUB0000045b TAOK3
T1 sequence (whole entry): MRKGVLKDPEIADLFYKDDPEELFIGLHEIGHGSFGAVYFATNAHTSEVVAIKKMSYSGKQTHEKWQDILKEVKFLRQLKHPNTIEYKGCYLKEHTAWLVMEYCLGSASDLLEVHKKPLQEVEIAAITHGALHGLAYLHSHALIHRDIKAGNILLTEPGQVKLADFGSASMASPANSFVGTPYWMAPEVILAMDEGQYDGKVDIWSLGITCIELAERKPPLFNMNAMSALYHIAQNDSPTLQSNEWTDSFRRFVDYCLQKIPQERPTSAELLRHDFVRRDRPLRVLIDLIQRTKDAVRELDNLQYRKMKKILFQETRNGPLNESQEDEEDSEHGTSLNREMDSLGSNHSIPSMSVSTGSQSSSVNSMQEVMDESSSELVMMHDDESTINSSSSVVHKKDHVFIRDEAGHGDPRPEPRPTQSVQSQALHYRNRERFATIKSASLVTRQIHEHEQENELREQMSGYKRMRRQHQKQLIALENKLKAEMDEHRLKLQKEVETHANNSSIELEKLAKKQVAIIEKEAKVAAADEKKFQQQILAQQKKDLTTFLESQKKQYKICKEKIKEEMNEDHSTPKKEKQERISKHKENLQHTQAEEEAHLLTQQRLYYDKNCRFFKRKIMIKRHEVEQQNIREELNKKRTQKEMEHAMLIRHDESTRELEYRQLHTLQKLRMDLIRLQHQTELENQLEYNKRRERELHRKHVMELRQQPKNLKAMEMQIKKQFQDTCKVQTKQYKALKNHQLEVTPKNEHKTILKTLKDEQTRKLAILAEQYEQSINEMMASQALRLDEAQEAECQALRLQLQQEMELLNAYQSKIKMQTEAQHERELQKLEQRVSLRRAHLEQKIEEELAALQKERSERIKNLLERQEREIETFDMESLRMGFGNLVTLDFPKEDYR

[3] = target: MAP kinase-interacting serine/threonine-protein kinase 1 (Homo sapiens) (UniProt Q9BUB5); assay: Selectivity interaction (KinomeScan (DiscoverX)) EUB0000045b MKNK1
Chain of MAP kinase-interacting serine/threonine-protein kinase 1 (Homo sapiens) (Q9BUB5 whole entry, looked up): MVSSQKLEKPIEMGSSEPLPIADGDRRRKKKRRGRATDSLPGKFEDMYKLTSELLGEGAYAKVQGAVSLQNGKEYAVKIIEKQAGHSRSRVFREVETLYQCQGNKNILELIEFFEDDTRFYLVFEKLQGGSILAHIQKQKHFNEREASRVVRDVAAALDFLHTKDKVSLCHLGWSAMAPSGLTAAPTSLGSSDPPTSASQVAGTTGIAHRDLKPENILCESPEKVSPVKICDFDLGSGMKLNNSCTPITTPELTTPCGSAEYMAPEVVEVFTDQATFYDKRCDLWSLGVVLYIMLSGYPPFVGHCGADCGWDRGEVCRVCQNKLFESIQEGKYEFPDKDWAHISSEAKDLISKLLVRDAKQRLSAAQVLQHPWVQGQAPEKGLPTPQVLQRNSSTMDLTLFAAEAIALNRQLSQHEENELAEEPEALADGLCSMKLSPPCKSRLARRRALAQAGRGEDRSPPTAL

[4] = target: Mitogen-activated protein kinase 3 (Homo sapiens, UniProt P27361); assay: Selectivity interaction (Rxn Biology Kinase assay) EUB0001632a MAPK3; conditions: at 10 µM
Chain of Mitogen-activated protein kinase 3 (P27361 whole entry): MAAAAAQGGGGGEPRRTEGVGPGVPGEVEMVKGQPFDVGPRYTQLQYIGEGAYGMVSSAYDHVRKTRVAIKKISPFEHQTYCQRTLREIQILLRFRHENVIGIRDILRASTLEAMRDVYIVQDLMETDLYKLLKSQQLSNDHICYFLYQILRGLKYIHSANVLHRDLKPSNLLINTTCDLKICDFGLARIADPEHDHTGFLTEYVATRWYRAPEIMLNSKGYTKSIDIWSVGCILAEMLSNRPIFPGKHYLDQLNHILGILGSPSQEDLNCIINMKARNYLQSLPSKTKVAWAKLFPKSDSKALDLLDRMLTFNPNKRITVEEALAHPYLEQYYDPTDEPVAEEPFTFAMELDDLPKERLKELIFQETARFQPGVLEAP

[5] = target: T2, Inhibitor of nuclear factor kappa-B kinase subunit beta (Homo sapiens) (UniProt O14920); assay: Selectivity interaction (KinomeScan (DiscoverX)) EUB0000666a IKBKB; conditions: at 10 µM
T2 sequence (whole entry): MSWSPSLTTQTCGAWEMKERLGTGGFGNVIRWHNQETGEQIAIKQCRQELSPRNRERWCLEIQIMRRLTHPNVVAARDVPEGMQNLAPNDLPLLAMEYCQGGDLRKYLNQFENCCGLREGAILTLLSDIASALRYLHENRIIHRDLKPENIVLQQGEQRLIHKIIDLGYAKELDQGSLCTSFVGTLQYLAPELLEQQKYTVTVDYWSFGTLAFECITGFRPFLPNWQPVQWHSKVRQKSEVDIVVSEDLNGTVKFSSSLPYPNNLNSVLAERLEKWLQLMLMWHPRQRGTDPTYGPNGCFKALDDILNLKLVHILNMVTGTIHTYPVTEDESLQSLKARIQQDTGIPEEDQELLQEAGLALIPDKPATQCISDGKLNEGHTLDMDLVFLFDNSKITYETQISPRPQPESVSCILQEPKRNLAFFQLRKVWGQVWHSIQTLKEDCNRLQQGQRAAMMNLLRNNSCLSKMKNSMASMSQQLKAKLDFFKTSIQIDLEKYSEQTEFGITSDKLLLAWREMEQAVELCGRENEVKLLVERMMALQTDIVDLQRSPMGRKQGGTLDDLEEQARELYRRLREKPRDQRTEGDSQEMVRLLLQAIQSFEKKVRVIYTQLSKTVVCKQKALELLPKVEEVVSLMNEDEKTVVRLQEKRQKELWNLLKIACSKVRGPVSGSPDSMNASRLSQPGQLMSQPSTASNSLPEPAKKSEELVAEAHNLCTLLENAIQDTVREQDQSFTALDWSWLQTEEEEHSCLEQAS

[6] = target: AP2-associated protein kinase 1 (Homo sapiens, UniProt Q2M2I8); assay: Selectivity interaction (KinomeScan (DiscoverX)) EUB0001868a AAK1; conditions: at 1 µM
[7] = target: Tau-tubulin kinase 2 (Homo sapiens) (UniProt Q6IQ55); assay: Selectivity interaction (ProQinase) EUB0000171b TTBK2
Chain of Tau-tubulin kinase 2 (Homo sapiens) (Q6IQ55 whole entry): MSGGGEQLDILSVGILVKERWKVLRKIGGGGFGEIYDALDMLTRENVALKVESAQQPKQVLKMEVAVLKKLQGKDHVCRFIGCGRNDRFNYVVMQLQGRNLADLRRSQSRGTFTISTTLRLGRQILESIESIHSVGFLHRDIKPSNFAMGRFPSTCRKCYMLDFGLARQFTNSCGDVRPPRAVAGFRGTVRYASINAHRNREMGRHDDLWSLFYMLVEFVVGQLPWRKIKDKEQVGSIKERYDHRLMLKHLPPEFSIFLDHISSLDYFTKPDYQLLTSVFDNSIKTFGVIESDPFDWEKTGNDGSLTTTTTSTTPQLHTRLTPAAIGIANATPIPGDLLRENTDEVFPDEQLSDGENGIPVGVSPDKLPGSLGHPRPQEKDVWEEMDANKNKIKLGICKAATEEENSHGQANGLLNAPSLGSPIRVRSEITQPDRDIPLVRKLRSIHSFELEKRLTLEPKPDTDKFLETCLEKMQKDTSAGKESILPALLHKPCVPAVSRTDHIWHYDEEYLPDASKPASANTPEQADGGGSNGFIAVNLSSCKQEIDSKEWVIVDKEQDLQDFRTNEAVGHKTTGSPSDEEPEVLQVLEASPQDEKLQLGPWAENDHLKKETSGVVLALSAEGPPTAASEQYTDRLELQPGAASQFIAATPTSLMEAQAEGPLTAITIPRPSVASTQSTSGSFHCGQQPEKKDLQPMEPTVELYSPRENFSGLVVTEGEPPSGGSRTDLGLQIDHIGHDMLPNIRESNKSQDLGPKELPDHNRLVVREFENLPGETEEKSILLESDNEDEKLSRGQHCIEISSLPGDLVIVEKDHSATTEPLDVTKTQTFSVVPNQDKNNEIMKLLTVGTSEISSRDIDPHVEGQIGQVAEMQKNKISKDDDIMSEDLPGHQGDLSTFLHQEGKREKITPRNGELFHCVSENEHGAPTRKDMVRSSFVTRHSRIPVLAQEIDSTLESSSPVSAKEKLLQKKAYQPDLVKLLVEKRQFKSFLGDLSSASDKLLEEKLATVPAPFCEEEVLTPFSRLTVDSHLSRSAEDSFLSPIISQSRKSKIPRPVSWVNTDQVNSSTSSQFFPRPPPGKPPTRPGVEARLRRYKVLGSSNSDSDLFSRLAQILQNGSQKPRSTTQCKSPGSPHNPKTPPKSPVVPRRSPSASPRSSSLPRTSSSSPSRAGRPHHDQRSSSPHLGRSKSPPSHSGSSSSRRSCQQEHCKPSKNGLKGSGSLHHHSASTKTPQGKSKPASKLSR

[8] = target: T3, Dual specificity mitogen-activated protein kinase kinase 5 (Homo sapiens) (UniProt Q13163); assay: Selectivity interaction (KinomeScan (DiscoverX)) EUB0001619a MAP2K5; conditions: at 1 µM
T3 sequence (whole entry): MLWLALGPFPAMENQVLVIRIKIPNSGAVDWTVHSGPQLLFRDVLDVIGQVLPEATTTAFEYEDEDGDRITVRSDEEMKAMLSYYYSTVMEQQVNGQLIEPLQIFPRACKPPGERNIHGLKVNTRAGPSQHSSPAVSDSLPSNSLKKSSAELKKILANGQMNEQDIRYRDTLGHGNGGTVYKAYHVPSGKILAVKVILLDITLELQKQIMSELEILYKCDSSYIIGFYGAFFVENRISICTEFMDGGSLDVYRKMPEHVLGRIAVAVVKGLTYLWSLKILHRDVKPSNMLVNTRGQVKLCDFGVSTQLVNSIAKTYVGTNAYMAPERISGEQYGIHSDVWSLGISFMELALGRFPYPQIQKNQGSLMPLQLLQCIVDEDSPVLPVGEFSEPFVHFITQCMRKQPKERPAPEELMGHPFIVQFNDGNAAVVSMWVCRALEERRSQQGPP

[9] = target: Serine/threonine-protein kinase PLK1 (Homo sapiens, UniProt P53350); assay: Selectivity interaction (SelectScreen profiling (Invitrogen)) EUB0000607a PLK1; conditions: at 2 µM
[10] = target: Serine/threonine-protein kinase OSR1 (Homo sapiens) (UniProt O95747); assay: Selectivity interaction (ActivX KiNativ screen (kinase selectivity in THP-1 cell lysates)) EUB0000639a OXSR1; format: subcellular; conditions: lysate
Chain of Serine/threonine-protein kinase OSR1 (Homo sapiens) (O95747 2-527 limits assumed): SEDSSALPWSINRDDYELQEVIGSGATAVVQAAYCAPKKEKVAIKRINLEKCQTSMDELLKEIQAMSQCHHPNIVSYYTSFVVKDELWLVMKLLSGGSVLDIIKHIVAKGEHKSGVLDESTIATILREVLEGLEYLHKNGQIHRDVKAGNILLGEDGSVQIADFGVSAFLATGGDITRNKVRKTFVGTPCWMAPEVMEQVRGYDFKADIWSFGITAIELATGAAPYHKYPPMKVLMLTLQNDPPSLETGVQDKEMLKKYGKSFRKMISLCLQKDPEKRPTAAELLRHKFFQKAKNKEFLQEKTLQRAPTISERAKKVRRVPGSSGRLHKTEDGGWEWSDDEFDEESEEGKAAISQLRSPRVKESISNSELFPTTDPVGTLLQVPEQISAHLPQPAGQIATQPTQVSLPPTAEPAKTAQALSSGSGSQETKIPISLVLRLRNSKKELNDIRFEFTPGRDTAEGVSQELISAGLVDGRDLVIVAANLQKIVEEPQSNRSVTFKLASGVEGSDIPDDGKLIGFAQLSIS

[11] = target: Death-associated protein kinase 1 (Homo sapiens, UniProt P53355); assay: Selectivity interaction (Ambit KINOMEscan and KiNATiv profiling in Jurkat cells) EUB0000090b DAPK1; format: cell-based; conditions: at 1 µM
Chain of Death-associated protein kinase 1 (P53355 whole entry, looked up): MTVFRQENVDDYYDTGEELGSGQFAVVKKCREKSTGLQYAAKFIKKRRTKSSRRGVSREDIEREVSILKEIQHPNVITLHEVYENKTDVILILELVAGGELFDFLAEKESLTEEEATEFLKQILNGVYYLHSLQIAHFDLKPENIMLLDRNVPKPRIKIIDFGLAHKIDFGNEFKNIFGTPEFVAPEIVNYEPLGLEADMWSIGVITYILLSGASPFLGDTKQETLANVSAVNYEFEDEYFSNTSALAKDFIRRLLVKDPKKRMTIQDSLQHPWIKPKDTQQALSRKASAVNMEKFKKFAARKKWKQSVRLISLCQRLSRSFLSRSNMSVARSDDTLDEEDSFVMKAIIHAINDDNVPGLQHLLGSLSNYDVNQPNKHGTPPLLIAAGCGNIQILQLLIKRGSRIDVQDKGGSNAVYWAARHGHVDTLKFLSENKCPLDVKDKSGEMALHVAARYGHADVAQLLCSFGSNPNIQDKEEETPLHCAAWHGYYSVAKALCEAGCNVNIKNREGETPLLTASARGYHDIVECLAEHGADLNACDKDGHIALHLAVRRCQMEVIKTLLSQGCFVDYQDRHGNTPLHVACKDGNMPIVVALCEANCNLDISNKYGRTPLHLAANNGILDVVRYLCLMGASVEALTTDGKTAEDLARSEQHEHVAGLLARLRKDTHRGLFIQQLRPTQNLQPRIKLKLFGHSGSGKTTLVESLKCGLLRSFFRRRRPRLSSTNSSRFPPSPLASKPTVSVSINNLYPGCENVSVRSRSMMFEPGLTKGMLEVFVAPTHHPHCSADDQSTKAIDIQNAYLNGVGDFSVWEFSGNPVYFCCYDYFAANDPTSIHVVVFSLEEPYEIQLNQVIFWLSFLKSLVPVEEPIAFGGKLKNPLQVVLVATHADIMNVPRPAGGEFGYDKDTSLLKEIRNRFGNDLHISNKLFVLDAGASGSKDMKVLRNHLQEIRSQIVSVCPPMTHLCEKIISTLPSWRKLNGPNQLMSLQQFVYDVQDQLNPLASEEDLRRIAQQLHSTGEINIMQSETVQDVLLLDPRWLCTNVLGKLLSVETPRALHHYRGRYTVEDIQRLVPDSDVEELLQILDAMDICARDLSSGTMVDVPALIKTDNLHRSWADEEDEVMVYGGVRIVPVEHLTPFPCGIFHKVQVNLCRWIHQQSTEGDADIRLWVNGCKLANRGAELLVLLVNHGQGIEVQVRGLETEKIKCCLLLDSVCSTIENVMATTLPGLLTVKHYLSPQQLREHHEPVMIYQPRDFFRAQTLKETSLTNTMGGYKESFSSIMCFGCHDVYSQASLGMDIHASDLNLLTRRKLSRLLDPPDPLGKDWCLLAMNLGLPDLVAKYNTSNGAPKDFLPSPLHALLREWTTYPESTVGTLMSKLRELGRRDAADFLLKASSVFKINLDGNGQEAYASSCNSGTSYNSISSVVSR

Chain of Tyrosine-protein kinase Srms (Homo sapiens) (Q9H3Y6 whole entry): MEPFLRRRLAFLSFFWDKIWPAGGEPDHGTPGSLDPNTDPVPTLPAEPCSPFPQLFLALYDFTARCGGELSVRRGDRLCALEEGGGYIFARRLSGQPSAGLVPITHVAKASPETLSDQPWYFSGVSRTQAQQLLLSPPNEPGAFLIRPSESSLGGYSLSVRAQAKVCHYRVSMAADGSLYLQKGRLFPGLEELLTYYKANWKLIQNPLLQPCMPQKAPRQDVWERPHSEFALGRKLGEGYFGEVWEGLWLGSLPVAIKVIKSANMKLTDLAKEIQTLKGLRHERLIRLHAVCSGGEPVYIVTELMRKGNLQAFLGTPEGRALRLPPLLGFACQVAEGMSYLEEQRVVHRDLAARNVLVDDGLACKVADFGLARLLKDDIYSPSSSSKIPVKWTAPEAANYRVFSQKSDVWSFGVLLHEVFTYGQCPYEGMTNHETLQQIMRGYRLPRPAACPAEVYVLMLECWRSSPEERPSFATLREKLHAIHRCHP

SMILES: COCC(=O)NC/C=C/c1ccc2ncnc(Nc3ccc(Oc4ccc(C)nc4)c(C)c3)c2c1 [CP-724714]
- % of control [1]: 71%

SMILES: C=CC(=O)Nc1cc(-n2c(=O)ccc3cnc4ccc(-c5ccc(NS(C)(=O)=O)cc5)cc4c32)ccc1C
- % of control ([2]; at 1 µM): 100%
- % of control ([2]; at 10 µM): 100%
- % of control ([3]; at 1 µM): 100%
- % of control ([3]; at 10 µM): 100%

SMILES: Cn1cc(-n2cnc3c(NCc4nc5cc(Cl)c(Cl)cc5[nH]4)nc(N4CCOCC4)nc32)cn1
- % of inhibition [4]: -5.84%

SMILES: O=C(NOC[C@H](O)CO)c1ccc(F)c(F)c1Nc1ccc(I)cc1F
- % of control [5]: 79%

SMILES: Cc1cc(-c2ccnc(Nc3cnn(C)c3)n2)ccc1CNC(=O)N1CC(OC(C)C)C1
- % of control [6]: 22%

SMILES: C=CC(=O)Nc1cccc(C(=O)Nc2ccc(Nc3cc(-c4[nH]c(SC)nc4C)ccn3)cc2)c1
- % of control ([7]; at 1 µM): 94%
- % of control ([7]; at 5 µM): 93%

SMILES: N#Cc1cccc(-c2c[nH]c3ncnc(N4CCOCC4)c23)c1
- % of control [8]: 14%

SMILES: CNC(=O)Nc1ccc(-c2nc(N3CC4CCC(C3)O4)c3cnn(C4CCC5(CC4)OCCO5)c3n2)cc1
- % of inhibition [9]: -4%

SMILES: CC[C@@H]1[C@H](F)C(=O)N[C@@H]1COc1nccc2cc(C(N)=O)c(OC)cc12 [ZIMLOVISERTIB]
- % of inhibition ([10]; at 0.01 µM): -18.1%
- % of inhibition ([10]; at 0.04 µM): -9.1%
- % of inhibition ([10]; at 0.2 µM): -3%
- % of inhibition ([10]; at 1 µM): -10.3%
- % of inhibition ([10]; at 5 µM): 16.3%

SMILES: CN(C)C/C=C/C(=O)Nc1ccc(C(=O)N2CCCC(Nc3ncc(Cl)c(-c4c[nH]c5ccccc45)n3)C2)cc1 (stereo not drawn)
- % of control [11]: 80%
